Where two headings read alike, the source gives them in different places.
Key:
[1] = system: L. donovani promastigotes; test: Transmission electron microscopy of promastigotes; assay type: cell-based, Leishmania donovani; conditions: 48 h; CsA 16 μM, DHCsA-d 12 μM, SSG 20 μM
From the text: (§1) Next, the cells were dehydrated in acetone and embedded in epoxy resin. Stained with lead citrate and observed under a Hitachi HT7700 transmission electron microscope.

[2] = system: L. donovani cyclophilin A (LdCyPA); test: Western blotting of LdCyPA expression in promastigotes; assay type: cell-based, Leishmania donovani; conditions: 48 h; CsA 16 μM, DHCsA-d 12 μM, SSG 20 μM; normalized to α-tubulin
Description: (§2) Polyclonal antibodies against LdCyPA were obtained to monitor protein expression. Representative peptides of LdCyPA were analyzed through two predictors for B cells, BEPIPRED and BCPRED12. […] Polyclonal antiserum was produced in New Zealand white rabbits. The rabbits were immunized with Freund’s adjuvant (Sigma-Aldrich), containing 1500 μg of LdCyPA peptide, on days 0, 15 and 30. The rabbits received three subcutaneous injections, the first in complete Freund’s adjuvant and later two in incomplete Freund’s adjuvant. Serum was obtained and antibody titers were estimated by ELISA on 25 and 42 days after the last injection.
(§3) These cells were then lysed with a protein lysis buffer supplemented with protease and phosphatase inhibitors and the protein concentration was determined by the BCA Kit (Beyotime). The extracted proteins were denatured for 5 min at 100 °C after adding appropriate amounts of loading buffer. Approximately 40 to 50 μg of proteins was loaded in each lane of a 12% polyacrylamide gel (Beyotime). […] The PVDF membranes were visualized with an enhanced chemiluminescence western blotting detection kit (Beyotime) and the protein bands were analyzed by densitometric studies using ImageJ software.

[3] = system: L. donovani infected macrophages (RAW 264.7); test: Cytokine quantification by ELISA in supernatants of L. donovani-infected RAW 264.7 macrophages; assay type: cell-based, mouse; conditions: 24 h, 48 h and 72 h; CsA 10 μM, DHCsA-d 5 μM, SSG 9 μM
Description: (§4) Mouse RAW 264.7 macrophages (5.0 × 10^5 cells/per well), adhered for 24 h at 37 °C, 5% CO2, in PRMI 1640 medium supplemented with 10% FBS were infected with promastigotes at a macrophages-to-parasite ratio of 1:20 for 6 h at 37 °C, 5% CO2, and subsequently the non-infected parasites were removed by washing three times with PBS. Infected macrophages were incubated in PRMI 1640 medium and 10% FBS at 37 °C, 5% CO2, without drugs for 24 h. […] The cells were further incubated for 3 days, and the medium supernatants were retrieved at 24, 48 and 72 h. Subsequently, the cytokines IL-12, IL-10, IL-4, IFN-γ and TNF-α were measured utilizing the BD OpitELA ELISA Kit (BD). NO and H2O2 concentrations in the supernatants were detected by nitric oxide and hydrogen peroxide assay kits (Beyotime), respectively.

[4] = system: intracellular amastigotes of Leishmania donovani; test: Intracellular amastigote inhibition in infected RAW 264.7 macrophages, Wright's stain and microscopy; assay type: cell-based; conditions: for Number of intracellular amastigotes compared to untreated (Wright's staining): CsA 10 μM, DHCsA-d 5 μM, SSG 9 μM; for IC50: intracellular amastigotes in RAW 264.7, mean ± SD
Description: (§5) Leishmania donovani strain MHOM/CN/IN/80/DD8 was used in this study. Leishmania promastigotes in the logarithmic phase were cultured at 28 °C in M199 medium at pH 7.4 (Sigma-Aldrich, Saint Louis, MO, USA), supplemented with 10% fetal bovine serum (Hyclone, Logan, UT, USA) and antibiotics (Pen-Strep, 100 U/ml penicillin-100 […] streptomycin sulphate).
(§6) RAW 264.7 cells (5.0 × 10^5 cells/per well) were plated on round glass coverslips in 24-well plates and allowed to adhere to the slides for 24 h at 37 °C, 5% CO2, in PRMI 1640 medium (Gibco, Franklin, TN, USA) supplemented with 10% FBS (Gibco). Adherent macrophages were infected with L. donovani promastigotes, at a macrophages-to-parasite ratio of 1:20 for 6 h at 37 °C, 5% CO2. Next, the non-infected parasites were removed by washing three times with PBS, and the infected macrophages were incubated in 37 °C in 5% CO2 with PRMI 1640 medium and 10% FBS without drugs for 24 h. […] At 24 and 48 h, the glass coverslips were fixed in methanol (Solarbio, Beijing, China) and stained with Wright’s stain (Solarbio). The numbers of parasites were determined using light microscopy by counting at least 200 cells per slide. The results are expressed as means of three independent experiments. The 50% inhibitory concentration (IC50) was calculated for promastigotes and intracellular amastigotes by fitting the values to a non-linear curve analysis.
(§7) All experiments were carried out in triplicates and repeated at least three times and the figures shown are representative of these experiments. IC50 were calculated according to a nonlinear regression using a log inhibitor-versus response equation with 95% confidence intervals in the GraphPad Prism 6.0 software. The data were analyzed using Student’s t-test for comparison of two groups and data values were expressed as the mean ± standard deviation (SD). Significant differences were determined and designated with asterisks as follows: *P < 0.05; **P < 0.01; ***P < 0.001 and ****P < 0.0001.

[5] = system: L. donovani cyclophilin A (LdCyPA); test: Western blotting of LdCyPA expression in intracellular amastigotes; assay type: cell-based, Leishmania donovani; conditions: 48 h; CsA 10 μM, DHCsA-d 5 μM, SSG 9 μM; normalized to α-tubulin
Description: as §2, §3

[6] = system: L. donovani infected macrophages (RAW 264.7); test: NO and H2O2 quantification in supernatants of L. donovani-infected RAW 264.7 macrophages; assay type: cell-based, mouse; conditions: 24 h, 48 h and 72 h; CsA 10 μM, DHCsA-d 5 μM, SSG 9 μM
Description: as §4

[7] = system: murine macrophages (RAW 264.7); test: Cytotoxicity assessment, Cell Counting Kit-8; assay type: cell-based, mouse
Description: Murine macrophages were cultivated in a 96-well plate using PRIM 1640 medium containing 10% FBS and maintained at 37 °C, 5% CO2, for 24 h. […] The cytotoxicity was measured at 24 and 48 h following a standard protocol.

[8] = system: cyclophilin A (CyPA); test: Western blotting of CyPA expression in RAW 264.7 cells; assay type: cell-based, mouse; conditions: 48 h; CsA 10 μM, DHCsA-d 5 μM, SSG 9 μM; normalized to α-tubulin
Description: These cells were then lysed with a protein lysis buffer supplemented with protease and phosphatase inhibitors and the protein concentration was determined by the BCA Kit (Beyotime). The extracted proteins were denatured for 5 min at 100 °C after adding appropriate amounts of loading buffer. Approximately 40 to 50 μg of proteins was loaded in each lane of a 12% polyacrylamide gel (Beyotime). Proteins were separated at 120 V until the dye front reached the bottom of the gel, followed by transfer of the gels to polyvinylidene fluoride (PVDF) membranes (EMD, MA, USA) in transfer buffer (25 mM Tris-HCl, 192 mM glycine, 20% methanol, 0.02% SDS, pH 8.3) and run at 200 mA for 60 min. The membranes were then soaked in a blocking buffer (1 × PBS, 0.1% Tween 20) and supplemented with 1% bovine serum albumin (Sigma-Aldrich) for 2 h, before incubating overnight at 4 °C individually with LdCyPA polyclonal antibody, CyPA antibody (Affinity, Dublin, OH, USA) and α-tubulin antibody (Affinity) at appropriate dilutions. All the primary antibodies were used at a 1:4000 dilution and horseradish peroxidase-conjugated anti-rabbit immunoglobulin secondary antibodies (Affinity) were used at a 1:5000 dilution. The PVDF membranes were visualized with an enhanced chemiluminescence western blotting detection kit (Beyotime) and the protein bands were analyzed by densitometric studies using ImageJ software.

[9] = system: intracellular amastigotes of L. donovani; test: Transmission electron microscopy of intracellular amastigotes in RAW 264.7 macrophages; assay type: cell-based, Leishmania donovani; conditions: 48 h, DHCsA-d 5 μM; for Ultrastructure of intracellular amastigotes (mitochondria): CsA 10 μM, SSG 9 μM
From the text: as §1

[10] = system: L. donovani promastigotes; test: Promastigote inhibition, flow cytometry (annexin V-FITC/PI); assay type: cell-based, Leishmania donovani; conditions: mean ± SD of three independent experiments
Description: as §5
Inhibition rate (%) was calculated as follows: Inhibition rate (%) = 100% − [(No. of live parasites in treated sample/No. of live parasites in untreated control) × 100%].
as §6, with “experiments.” for “experiments. The 50% inhibitory concentration (IC50) was calculated for promastigotes and intracellular amastigotes by fitting the values to a non-linear curve analysis.”
as §7

[11] = 24 h, mean ± SD, read-out: Cytotoxicity (RAW 264.7) CC50
[12] = 48 h, mean ± SD, read-out: Cytotoxicity (RAW 264.7) CC50

SMILES | Ultrastructure of promastigote mitochondria [1] | Expression of LdCyPA in promastigotes vs untreated [2] | IFN-γ level vs untreated infected cells [3] | IL-4 level vs untreated infected cells [3] | IL-10 level vs untreated infected cells [3] | IL-12 level vs untreated infected cells [3] | TNF-α level vs untreated infected cells [3] | Number of intracellular amastigotes compared to untreated (Wright's staining) ([4]; 24 h) | IC50 ([4]; 24 h) [µM] | Number of intracellular amastigotes compared to untreated (Wright's staining) ([4]; 48 h) | IC50 ([4]; 48 h) [µM] | Expression of LdCyPA in intracellular amastigotes vs untreated [5] | H2O2 production vs untreated infected cells [6] | NO production vs untreated infected cells [6] | CC50 [7, 11] [µM] | CC50 [7, 12] [µM] | Expression of CyPA in RAW 264.7 cells vs untreated [8] | Ultrastructure of intracellular amastigotes (mitochondria) [9] | IC50 ([10]; 24 h) [µM] | IC50 ([10]; 48 h) [µM] | other results
CCCC[C@@H](C)[C@@H](O)[C@H]1C(=O)N[C@@H](CC)C(=O)N(C)CC(=O)N(C)[C@@H](CC(C)C)C(=O)N[C@@H](C(C)C)C(=O)N(C)[C@@H](CC(C)C)C(=O)N[C@@H](C)C(=O)N[C@H](C)C(=O)N(C)[C@@H](CC(C)C)C(=O)N(C)[C@@H](CC(C)C)C(=O)N(C)[C@@H](C(C)C)C(=O)N1C [DHCsA-d, dihydrocyclosporin A] | completely disorganized | no significant changes | significant increases | significantly decreased | significantly decreased | significant increases | significant increases | reduced | 5.23 ± 2.1 | basically absent | 4.84 ± 0.4 | no significant changes | significantly decreased | significantly decreased | 7.98 ± 0.4 | 6.65 ± 0.7 | no significant changes | disintegrated | 21.2 ± 1.2 | 12.1 ± 1.1 | Share of intracellular amastigotes degraded in parasitophorous vacuoles [9]: Almost half
O.O.O.O.O.O.O.O.O.O=C([O-])[C@@H]1[O][Sb](=[O])([O][Sb]2(=[O])[O][C@H]([C@H](O)CO)[C@H](O)[C@H](C(=O)[O-])[O]2)[O][C@H]([C@H](O)CO)[C@@H]1O.[Na+].[Na+].[Na+] (stereo partly drawn) [SSG, Sodium stibogluconate] | completely disorganized | no significant changes | significant increases | significantly decreased | significantly decreased | significant increases | significant increases | reduced | 9.51 ± 0.5 | basically absent | 8.27 ± 0.1 | no significant changes | significantly decreased | significantly decreased | > 120 | > 120 | no significant changes | disintegrated | 32.3 ± 1.6 | 20.2 ± 1.4 | CC50 ([7]; RAW 264.7, time not given in the sentence, read-out: CC50): > 120 µM
